Some test systems named below: OVCAR-8 ovarian; EKVX NSCLC; 786-0 renal; U251 CNS; UACC-62 melanoma; SF-539 CNS; NCI-H226 lung; A549 NSCLC; NCI-H23 lung; SNB-75 CNS.
Common to all, as to test: NCI tumour cell line growth inhibition, 48 h

Each structure is given as a SMILES string.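 Tested at 5 concentrations; 48 h exposure; 96-well plates; endpoints linearly interpolated, else capped at highest concentration. GI50 is the concentration that inhibits growth by half. TGI marks complete inhibition of growth.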 Bounds are passed on as bounds.

As for `Nc1ncn([C@@H]2C=C(CO)C(O)C2O)c(=O)n1` (some centres not stated), the TGI in the assay with OVCAR-8 ovarian, in the assay on EKVX NSCLC, in the assay with 786-0 renal, with U251 CNS, in the assay on UACC-62 melanoma and in the assay on SF-539 CNS was more than 100 µM in each case. Moreover, the TGI in the assay on NCI-H226 lung, with A549 NSCLC and in the assay with NCI-H23 lung was more than 100 µM in each case.

For the compound `CC/C(=C(/CC)c1ccc(OP(=O)([O-])[O-])cc1)c1ccc(OP(=O)([O-])[O-])cc1.N.N.N.N.[Pt+4].[Pt+4]`, the GI50 is 4.71 µM in the assay on OVCAR-8 ovarian; 7.77 µM in the assay with EKVX NSCLC; 4.77 µM in the assay on 786-0 renal; 0.594 µM with U251 CNS; 0.901 µM with UACC-62 melanoma; 3.51 µM in the assay on SF-539 CNS. Besides, the GI50 in the assay with SNB-75 CNS was 1.24 µM; in the assay on NCI-H226 lung, 2.31 µM; in the assay with A549 NSCLC, 2.45 µM. Also, the TGI is more than 100 µM in the assay with OVCAR-8 ovarian; 41.9 µM in the assay with EKVX NSCLC; more than 100 µM with 786-0 renal; 2.12 µM with U251 CNS; 5.15 µM in the assay with UACC-62 melanoma; 7.4 µM in the assay with SNB-75 CNS. The TGI in the assay with NCI-H226 lung amounted to 4.96 µM; in the assay on A549 NSCLC it was 8.43 µM.

For the compound `COC12c3ccccc3-c3ccccc3C1[C@@H](C(=O)O)[C@H]2C(=O)O` (some centres not stated), the TGI with OVCAR-8 ovarian, in the assay on EKVX NSCLC, in the assay with 786-0 renal, with U251 CNS, in the assay with SF-539 CNS and with SNB-75 CNS was more than 10 µM in each case. Moreover, the TGI with NCI-H226 lung and in the assay with NCI-H23 lung was more than 10 µM in each case.

In the case of `O=C1/C(=C\c2ccccc2)CN(C(=O)c2ccccc2F)C/C1=C\c1ccccc1`, the GI50 is 2.67 µM in the assay on OVCAR-8 ovarian; 1.85 µM in the assay with 786-0 renal; 1.68 µM in the assay with U251 CNS; 1.68 µM in the assay with UACC-62 melanoma; 2 µM in the assay on SF-539 CNS; 3.5 µM in the assay on SNB-75 CNS. Besides, the GI50 with NCI-H226 lung was 5.6 µM; in the assay on A549 NSCLC it was 3.2 µM; in the assay on NCI-H23 lung, 2.13 µM. Moreover, the TGI in the assay with OVCAR-8 ovarian came to 7.9 µM; in the assay on 786-0 renal it was 3.56 µM; in the assay on U251 CNS it was 3.26 µM; in the assay on UACC-62 melanoma, 3.41 µM; with SF-539 CNS it was 4.12 µM; in the assay with SNB-75 CNS, 14.5 µM. For the same compound, the TGI in the assay on NCI-H226 lung was determined as 21.5 µM; with A549 NSCLC, 12 µM; in the assay with NCI-H23 lung, 4.84 µM.

In the case of `CCOC(=O)C1=C(O)CSC1=Nc1ccc(N=C2SCC(O)=C2C(=O)OCC)cc1`, the TGI in the assay with OVCAR-8 ovarian is more than 100 µM; in the assay with EKVX NSCLC, 96.7 µM; in the assay with 786-0 renal, 31.4 µM; with U251 CNS, 63 µM; with UACC-62 melanoma it was 44.2 µM; in the assay with SF-539 CNS, 43 µM. Moreover, the TGI with SNB-75 CNS is 61.4 µM; in the assay with NCI-H226 lung it was 44 µM; with A549 NSCLC, 93 µM.

Take `COC(=O)C12C3C=CC(O3)C1C1C=CC2O1` (configuration not stated): the TGI with OVCAR-8 ovarian, in the assay with EKVX NSCLC, in the assay with 786-0 renal, in the assay on U251 CNS, in the assay on SF-539 CNS and in the assay on NCI-H226 lung was more than 100 µM throughout. Also, the TGI in the assay on A549 NSCLC and in the assay with NCI-H23 lung was more than 100 µM in each case.

Consider `COc1cc2c(c(Br)c1N)-c1cc(Br)c(N)cc1C2=O`, for which the GI50 in the assay on OVCAR-8 ovarian was 4.9 µM; with EKVX NSCLC it was 9.99 µM; in the assay on 786-0 renal it was more than 100 µM; in the assay on U251 CNS it was 4.58 µM; in the assay on UACC-62 melanoma, more than 100 µM; in the assay with SF-539 CNS, 4.93 µM. In addition, the GI50 with SNB-75 CNS is 1.96 µM; in the assay on A549 NSCLC, more than 89.9 µM; with NCI-H23 lung, 4.3 µM. The TGI in the assay on OVCAR-8 ovarian, in the assay on EKVX NSCLC, with 786-0 renal, with U251 CNS, in the assay with UACC-62 melanoma and with SF-539 CNS was more than 100 µM each time. In addition, the TGI with SNB-75 CNS, in the assay with A549 NSCLC and in the assay on NCI-H23 lung was more than 100 µM in each case.

For `COC1C2c3ccccc3C(C#N)(Cc3ccc4c(c32)OCO4)N1C(=O)c1ccccc1` (configuration not stated), the TGI in the assay with OVCAR-8 ovarian, with EKVX NSCLC, in the assay with 786-0 renal, with U251 CNS, in the assay on UACC-62 melanoma and with SF-539 CNS was more than 100 µM throughout. Further, the results for the TGI with SNB-75 CNS, with NCI-H226 lung and with NCI-H23 lung were more than 100 µM, 85.9 µM and more than 100 µM, respectively.

Take `CCOC(=O)C12CN(C34CC5CC(CC(C5)C3)C4)CC(C(=O)OCC)(C1=O)C(c1ccccc1)OC2c1ccccc1` (configuration not stated): the TGI in the assay on OVCAR-8 ovarian, in the assay on EKVX NSCLC, in the assay with 786-0 renal, in the assay on U251 CNS, in the assay with UACC-62 melanoma and with SNB-75 CNS was more than 100 µM each time. The TGI in the assay with NCI-H226 lung, in the assay with A549 NSCLC and in the assay with NCI-H23 lung was more than 100 µM throughout.

Consider `Cn1cccc1C1CC(=O)N(CCC[Se]C#N)C1=O` (configuration not stated), for which the GI50 with OVCAR-8 ovarian is 2.05 µM; in the assay on EKVX NSCLC, 1.93 µM; in the assay with 786-0 renal it was 1.95 µM; in the assay with U251 CNS, 1.72 µM; in the assay on UACC-62 melanoma, 1.87 µM; in the assay with SF-539 CNS it was 1.96 µM. The GI50 with NCI-H226 lung is 1.62 µM; in the assay with A549 NSCLC, 2.07 µM; in the assay on NCI-H23 lung, 2.6 µM. Moreover, the TGI in the assay on OVCAR-8 ovarian worked out at 4.44 µM; with EKVX NSCLC, 4.46 µM; in the assay on 786-0 renal it was 3.44 µM; in the assay on U251 CNS, 3.48 µM; in the assay with UACC-62 melanoma it was 3.91 µM; with SF-539 CNS it was 3.66 µM. The TGI in the assay with NCI-H226 lung was 4.3 µM; with A549 NSCLC, 5.17 µM; in the assay with NCI-H23 lung, 7.88 µM.

For the compound `CC1=C(C(=O)Nc2cc(F)c(F)cc2F)C(c2cccc([N+](=O)[O-])c2)C(C(=O)Nc2ccccc2C(F)(F)F)=C(C)N1` (configuration not stated), the TGI in the assay on OVCAR-8 ovarian is 77.7 µM; in the assay on EKVX NSCLC, 77.1 µM; in the assay on 786-0 renal it was 40.3 µM; with U251 CNS, 53.1 µM; in the assay on SF-539 CNS, 53.1 µM; in the assay with SNB-75 CNS, 38.4 µM. The TGI is 74.7 µM with NCI-H226 lung, more than 100 µM in the assay with A549 NSCLC and 46.5 µM in the assay on NCI-H23 lung.

With `CC1(C)CC(C2CC(C)(C)CC(C)(C)[C@H]2O)[C@@H](O)C(C)(C)C1` (some centres not stated), the TGI in the assay with OVCAR-8 ovarian, in the assay on EKVX NSCLC, in the assay with 786-0 renal, in the assay with U251 CNS, with UACC-62 melanoma and with SF-539 CNS was more than 100 µM in each case. For the same compound, the TGI in the assay with NCI-H226 lung, in the assay with A549 NSCLC and in the assay with NCI-H23 lung was more than 100 µM in each case.

For `N/C(=N\N=C=C1C(=O)Nc2ccc(F)cc21)NO`, the TGI in the assay with OVCAR-8 ovarian, in the assay with EKVX NSCLC, in the assay on 786-0 renal, with U251 CNS, in the assay with UACC-62 melanoma and in the assay on SF-539 CNS was more than 100 µM in each case. For the same compound, the TGI with SNB-75 CNS was 65.9 µM; with A549 NSCLC, more than 100 µM; in the assay with NCI-H23 lung it was more than 100 µM.

As to `Cc1ccc(S(=O)(=O)OC(C=O)C(O)C(O)COC(c2ccccc2)(c2ccccc2)c2ccccc2)cc1` (configuration not stated), the TGI was 26.5 µM with OVCAR-8 ovarian; 34.5 µM in the assay on EKVX NSCLC; 27.3 µM in the assay with 786-0 renal; 27.9 µM with U251 CNS; 28.9 µM in the assay with UACC-62 melanoma; 30.8 µM with SF-539 CNS. The TGI in the assay with SNB-75 CNS came out at 29.4 µM; in the assay with NCI-H226 lung, 29.4 µM; with A549 NSCLC it was 33.3 µM.

Consider `CC1(C)CCC(CN2CCN(c3ccc(C(=O)NS(=O)(=O)c4ccc(NCC5CCOCC5)c([N+](=O)[O-])c4)c(Oc4cnc5[nH]ccc5c4)c3)CC2)=C(c2ccc(Cl)cc2)C1`, for which the GI50 with OVCAR-8 ovarian was 3.22 µM; in the assay on 786-0 renal, 3.54 µM; in the assay with U251 CNS, 2.9 µM; in the assay on UACC-62 melanoma it was 0.782 µM; in the assay on SF-539 CNS, 2.41 µM; with SNB-75 CNS, 3.71 µM. Also, the figures for the GI50 in the assay with NCI-H226 lung, in the assay on A549 NSCLC and with NCI-H23 lung were 2.36 µM, 2.4 µM and 3.13 µM, respectively. The TGI in the assay with OVCAR-8 ovarian worked out at 16.5 µM; in the assay with 786-0 renal, 12.5 µM; in the assay on U251 CNS, 11.5 µM; in the assay with UACC-62 melanoma it was 2.16 µM; with SF-539 CNS it was 5.62 µM; in the assay with SNB-75 CNS, 15.1 µM. Further, the TGI in the assay on NCI-H226 lung was determined as 6.9 µM; in the assay with A549 NSCLC it was 11.8 µM; in the assay with NCI-H23 lung, 12.5 µM.

In the case of `Cc1ccc(NC(=O)CCC(=O)C2CC(=O)CCC2=O)cc1C` (configuration not stated), the TGI in the assay with OVCAR-8 ovarian, with EKVX NSCLC, with 786-0 renal, in the assay on U251 CNS, in the assay with UACC-62 melanoma and with SF-539 CNS was more than 100 µM throughout. Moreover, the TGI in the assay on NCI-H226 lung, in the assay with A549 NSCLC and with NCI-H23 lung was more than 100 µM in each case.

For `Cc1nc(N=C(N)N)nc2ccc3ccccc3c12`, the GI50 in the assay on OVCAR-8 ovarian was 0.811 µM; with 786-0 renal it was 1.11 µM; with U251 CNS, 0.676 µM; in the assay with SF-539 CNS, 1.39 µM; with SNB-75 CNS, 0.524 µM; in the assay on NCI-H226 lung, 1.29 µM. The GI50 is 1.95 µM in the assay with A549 NSCLC and 2.33 µM with NCI-H23 lung. Also, the TGI is 3.91 µM in the assay on OVCAR-8 ovarian; 3.01 µM in the assay on 786-0 renal; 2.29 µM with U251 CNS; 2.98 µM with SF-539 CNS; 1.97 µM in the assay with SNB-75 CNS; 3.58 µM in the assay on NCI-H226 lung. Further, the TGI in the assay on A549 NSCLC is 7.24 µM; in the assay with NCI-H23 lung it was 7.31 µM.
